Reference: BindingDB's records for doi:10.1124/mol.53.2.195 (Suntory Institute For Bioorganic Research, 1998)

Columns and labels:
[1] = target: Glutamate receptor ionotropic, kainate 1 (Rattus norvegicus, UniProt P22756)
[2] = target: Glutamate receptor ionotropic, NMDA 1 (Rattus norvegicus, UniProt P35439)
[3] = target: Glutamate receptor 3 (Rattus norvegicus, UniProt P19492)
Sequence of Glutamate receptor 3 (P19492 whole entry): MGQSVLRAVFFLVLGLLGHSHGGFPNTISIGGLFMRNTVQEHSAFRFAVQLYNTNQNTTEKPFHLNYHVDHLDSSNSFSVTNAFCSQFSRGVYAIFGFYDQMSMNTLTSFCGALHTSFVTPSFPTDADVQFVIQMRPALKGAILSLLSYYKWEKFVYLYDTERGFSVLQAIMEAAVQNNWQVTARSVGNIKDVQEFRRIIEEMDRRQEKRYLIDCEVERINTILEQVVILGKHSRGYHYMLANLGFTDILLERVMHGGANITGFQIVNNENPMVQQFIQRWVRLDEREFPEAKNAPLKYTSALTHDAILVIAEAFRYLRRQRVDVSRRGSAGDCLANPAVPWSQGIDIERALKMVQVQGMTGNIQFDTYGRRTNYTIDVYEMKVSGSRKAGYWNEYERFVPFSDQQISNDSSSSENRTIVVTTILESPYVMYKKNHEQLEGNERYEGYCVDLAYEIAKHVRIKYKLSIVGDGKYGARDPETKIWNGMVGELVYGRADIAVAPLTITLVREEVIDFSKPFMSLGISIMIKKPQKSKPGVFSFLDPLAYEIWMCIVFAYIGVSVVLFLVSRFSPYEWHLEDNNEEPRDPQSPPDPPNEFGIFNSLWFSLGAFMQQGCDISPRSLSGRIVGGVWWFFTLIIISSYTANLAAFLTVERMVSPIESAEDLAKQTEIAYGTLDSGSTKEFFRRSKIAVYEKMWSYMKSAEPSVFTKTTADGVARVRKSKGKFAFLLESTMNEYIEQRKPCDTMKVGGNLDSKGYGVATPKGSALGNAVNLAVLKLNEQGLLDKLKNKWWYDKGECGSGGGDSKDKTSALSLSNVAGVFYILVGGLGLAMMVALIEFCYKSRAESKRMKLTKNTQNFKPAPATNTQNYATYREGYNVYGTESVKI

Sequence of Glutamate receptor ionotropic, kainate 1 (P22756 whole entry): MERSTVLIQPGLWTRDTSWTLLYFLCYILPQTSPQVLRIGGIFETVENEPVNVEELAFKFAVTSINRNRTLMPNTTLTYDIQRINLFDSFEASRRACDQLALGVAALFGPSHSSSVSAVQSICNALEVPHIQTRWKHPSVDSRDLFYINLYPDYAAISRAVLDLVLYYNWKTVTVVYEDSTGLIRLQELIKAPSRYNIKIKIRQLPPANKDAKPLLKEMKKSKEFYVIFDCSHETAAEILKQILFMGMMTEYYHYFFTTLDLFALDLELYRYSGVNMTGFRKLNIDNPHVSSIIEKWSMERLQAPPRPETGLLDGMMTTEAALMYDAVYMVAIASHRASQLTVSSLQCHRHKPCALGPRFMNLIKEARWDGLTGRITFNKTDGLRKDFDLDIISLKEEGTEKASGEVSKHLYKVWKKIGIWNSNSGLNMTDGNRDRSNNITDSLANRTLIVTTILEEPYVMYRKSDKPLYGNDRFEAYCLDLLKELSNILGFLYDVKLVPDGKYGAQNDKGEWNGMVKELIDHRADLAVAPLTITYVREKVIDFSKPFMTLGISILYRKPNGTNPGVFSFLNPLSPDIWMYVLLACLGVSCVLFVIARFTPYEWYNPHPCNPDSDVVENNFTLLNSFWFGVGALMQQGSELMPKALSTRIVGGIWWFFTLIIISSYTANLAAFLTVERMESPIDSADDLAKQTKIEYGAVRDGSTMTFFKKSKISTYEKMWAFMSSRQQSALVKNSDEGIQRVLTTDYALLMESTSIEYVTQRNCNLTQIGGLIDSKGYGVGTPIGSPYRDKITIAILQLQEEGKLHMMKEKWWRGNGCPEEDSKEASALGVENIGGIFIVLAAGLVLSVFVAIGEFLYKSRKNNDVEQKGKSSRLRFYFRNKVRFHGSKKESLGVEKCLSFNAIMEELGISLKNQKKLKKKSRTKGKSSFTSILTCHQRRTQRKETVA

| Compound | Ki [1] [µM] | Ki [2] [µM] | Ki [3] [µM] |
| --- | --- | --- | --- |
| N[C@H](C(=O)O)[C@H](OC(=O)c1ccccc1)C(=O)O (racemic) [DL-TBzOAsp] | > 10 | > 10 | > 10 |
| N[C@H](C(=O)O)[C@H](O)C(=O)O (racemic) [DL-THA] | > 10 | > 10 | > 10 |
| N[C@H](C(=O)O)[C@H](OCc1ccccc1)C(=O)O [DL-TBOA] | > 10 | > 10 | > 10 |
| N[C@H](C(=O)O)[C@H]1C[C@H]1C(=O)O [L-CCG-IV] | – | 0.008 | – |
| CN[C@H](CC(=O)O)C(=O)O [NMDA] | – | 5.5 | – |
| CC(C)[C@H]1CN[C@H](C(=O)O)[C@H]1CC(=O)O [dihydrokainic acid] | 6 | > 10 | > 10 |
| O=C(O)[C@H]1CN[C@H](C(=O)O)C1 [t-PDC] | > 10 | > 10 | > 10 |
